Measured values as given in PubChem BioAssay (NCI).
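Grown in 96-well plates, cells were treated for 48 hours with each compound at five concentrations. Insufficient inhibition: endpoint recorded as highest concentration tested. The concentration for full growth arrest is given as TGI.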

Legend:
Assay in all cases: NCI-60 cell line screen, 48 h
786-0 renal = tested on: 786-0 renal
A498 renal = tested on: A498 renal
A549 NSCLC = tested on: A549 NSCLC
ACHN renal = tested on: ACHN renal
BT-549 breast = tested on: BT-549 breast
CAKI-1 renal = tested on: CAKI-1 renal
CCRF-CEM leukemia = tested on: CCRF-CEM leukemia
COLO 205 colon = tested on: COLO 205 colon
DU-145 prostate = tested on: DU-145 prostate
EKVX NSCLC = tested on: EKVX NSCLC
HCC-2998 colon = tested on: HCC-2998 colon
HCT-116 colon = tested on: HCT-116 colon
HCT-15 colon = tested on: HCT-15 colon
HL-60(TB) leukemia = tested on: HL-60(TB) leukemia
HOP-62 NSCLC = tested on: HOP-62 NSCLC
HOP-92 NSCLC = tested on: HOP-92 NSCLC
HT29 colon = tested on: HT29 colon
IGROV1 ovarian = tested on: IGROV1 ovarian
K-562 leukemia = tested on: K-562 leukemia
KM12 colon = tested on: KM12 colon
LOX IMVI melanoma = tested on: LOX IMVI melanoma
M14 melanoma = tested on: M14 melanoma
MALME-3M melanoma = tested on: MALME-3M melanoma
MCF7 breast = tested on: MCF7 breast
MDA-MB-231 breast = tested on: MDA-MB-231 breast
MDA-MB-435 = tested on: MDA-MB-435
MDA-N = tested on: MDA-N
MOLT-4 leukemia = tested on: MOLT-4 leukemia
NCI-H226 lung = tested on: NCI-H226 lung
NCI-H23 lung = tested on: NCI-H23 lung
NCI-H460 lung = tested on: NCI-H460 lung
NCI-H522 lung = tested on: NCI-H522 lung
NCI/ADR-RES ovarian = tested on: NCI/ADR-RES ovarian
OVCAR-3 ovarian = tested on: OVCAR-3 ovarian
OVCAR-4 ovarian = tested on: OVCAR-4 ovarian
OVCAR-5 ovarian = tested on: OVCAR-5 ovarian
OVCAR-8 ovarian = tested on: OVCAR-8 ovarian
PC-3 prostate = tested on: PC-3 prostate
RPMI-8226 leukemia = tested on: RPMI-8226 leukemia
RXF 393 renal = tested on: RXF 393 renal
SF-268 CNS = tested on: SF-268 CNS
SF-295 CNS = tested on: SF-295 CNS
SF-539 CNS = tested on: SF-539 CNS
SK-MEL-2 melanoma = tested on: SK-MEL-2 melanoma
SK-MEL-28 melanoma = tested on: SK-MEL-28 melanoma
SK-MEL-5 melanoma = tested on: SK-MEL-5 melanoma
SK-OV-3 ovarian = tested on: SK-OV-3 ovarian
SN12C renal = tested on: SN12C renal
SNB-19 CNS = tested on: SNB-19 CNS
SNB-75 CNS = tested on: SNB-75 CNS
SR leukemia = tested on: SR leukemia
SW-620 colon = tested on: SW-620 colon
T-47D breast = tested on: T-47D breast
TK-10 renal = tested on: TK-10 renal
U251 CNS = tested on: U251 CNS
UACC-257 melanoma = tested on: UACC-257 melanoma
UACC-62 melanoma = tested on: UACC-62 melanoma
UO-31 renal = tested on: UO-31 renal

## CCCCCCc1cc2cc(-c3cn4ccccc4n3)c(=O)oc2cc1O
786-0 renal
  TGI: 4.76 µM
A498 renal
  TGI: 50.7 µM
A549 NSCLC
  TGI: 31.2 µM
ACHN renal
  TGI: 38.1 µM
BT-549 breast
  TGI: 22.1 µM
CAKI-1 renal
  TGI: 13.5 µM
CCRF-CEM leukemia
  TGI: > 100 µM
COLO 205 colon
  TGI: > 100 µM
DU-145 prostate
  TGI: 19.3 µM
EKVX NSCLC
  TGI: 45.4 µM
HCC-2998 colon
  TGI: 47.2 µM
HCT-116 colon
  TGI: 16.9 µM
HCT-15 colon
  TGI: 20.9 µM
HL-60(TB) leukemia
  TGI: > 100 µM
HOP-62 NSCLC
  TGI: 24.4 µM
HOP-92 NSCLC
  TGI: 32.6 µM
HT29 colon
  TGI: > 100 µM
IGROV1 ovarian
  TGI: 27.7 µM
K-562 leukemia
  TGI: > 40.3 µM
KM12 colon
  TGI: > 67.9 µM
LOX IMVI melanoma
  TGI: > 36.9 µM
M14 melanoma
  TGI: 16.1 µM
MALME-3M melanoma
  TGI: 4.74 µM
MCF7 breast
  TGI: 17.5 µM
MDA-MB-231 breast
  TGI: 9.7 µM
MDA-MB-435
  TGI: 20.6 µM
MDA-N
  TGI: 18.9 µM
MOLT-4 leukemia
  TGI: > 63.3 µM
NCI-H226 lung
  TGI: 34.5 µM
NCI-H23 lung
  TGI: 17 µM
NCI-H460 lung
  TGI: 36.1 µM
NCI-H522 lung
  TGI: 15.1 µM
NCI/ADR-RES ovarian
  TGI: 21.4 µM
OVCAR-3 ovarian
  TGI: 15.7 µM
OVCAR-4 ovarian
  TGI: 17.5 µM
OVCAR-5 ovarian
  TGI: 51.7 µM
OVCAR-8 ovarian
  TGI: 28.5 µM
PC-3 prostate
  TGI: 32.7 µM
RPMI-8226 leukemia
  TGI: 18.4 µM
RXF 393 renal
  TGI: 15.1 µM
SF-268 CNS
  TGI: 6.94 µM
SF-295 CNS
  TGI: 34.1 µM
SF-539 CNS
  TGI: 7.19 µM
SK-MEL-2 melanoma
  TGI: 28.5 µM
SK-MEL-28 melanoma
  TGI: 24.7 µM
SK-MEL-5 melanoma
  TGI: 22.1 µM
SK-OV-3 ovarian
  TGI: 26.5 µM
SN12C renal
  TGI: 17.5 µM
SNB-19 CNS
  TGI: 26 µM
SNB-75 CNS
  TGI: 8.81 µM
SR leukemia
  TGI: 18.8 µM
SW-620 colon
  TGI: > 53.6 µM
T-47D breast
  TGI: 52 µM
TK-10 renal
  TGI: 30.1 µM
U251 CNS
  TGI: 10.2 µM
UACC-257 melanoma
  TGI: 50.9 µM
UACC-62 melanoma
  TGI: 20.6 µM
UO-31 renal
  TGI: 20.7 µM
